The target of one series is T1, human ETA receptors (Homo sapiens, UniProt P25101).
T1 construct: endogenous in cells; host or cells: TE 671 cells (ATCC HTB 139), membrane preparation
T1 sequence (P25101 21-427): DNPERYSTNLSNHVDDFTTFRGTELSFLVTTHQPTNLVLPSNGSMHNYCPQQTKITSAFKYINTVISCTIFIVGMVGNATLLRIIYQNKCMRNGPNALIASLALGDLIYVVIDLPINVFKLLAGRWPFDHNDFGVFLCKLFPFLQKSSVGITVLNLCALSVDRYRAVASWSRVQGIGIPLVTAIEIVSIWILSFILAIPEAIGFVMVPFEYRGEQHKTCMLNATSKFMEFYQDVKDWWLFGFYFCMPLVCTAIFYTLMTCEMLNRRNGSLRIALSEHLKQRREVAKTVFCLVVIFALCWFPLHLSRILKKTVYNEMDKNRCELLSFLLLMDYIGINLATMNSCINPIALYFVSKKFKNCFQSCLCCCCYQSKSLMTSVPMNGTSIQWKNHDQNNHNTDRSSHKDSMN
In words: Endothelin binding inhibition, Binding Test #1: competition with 125I-ET-1 for ETA receptors on TE 671 cell membranes. Particulars: incubation at 24° C. (values marked †).

The target of a further series is T2, human ETB receptor (Homo sapiens, UniProt P24530).
T2 construct: expressed in transfected cells; host or cells: COS7 cells
T2 sequence (P24530 27-442): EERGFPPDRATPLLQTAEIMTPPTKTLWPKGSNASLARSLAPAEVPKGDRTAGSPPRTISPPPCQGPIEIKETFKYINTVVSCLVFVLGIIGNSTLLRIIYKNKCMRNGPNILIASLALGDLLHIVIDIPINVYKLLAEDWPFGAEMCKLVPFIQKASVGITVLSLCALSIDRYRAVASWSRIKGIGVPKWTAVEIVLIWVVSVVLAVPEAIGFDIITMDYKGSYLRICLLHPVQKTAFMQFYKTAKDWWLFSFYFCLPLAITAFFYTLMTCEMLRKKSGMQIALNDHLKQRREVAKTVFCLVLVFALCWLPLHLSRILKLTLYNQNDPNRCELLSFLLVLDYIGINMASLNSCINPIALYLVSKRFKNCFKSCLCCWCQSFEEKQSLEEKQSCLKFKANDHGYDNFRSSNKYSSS
In words: Endothelin binding inhibition, Binding Test #2: competition with 125I-ET-1 for ETB receptors on transfected COS7 cell membranes. Particulars: incubation at 24° C. (values marked †). The essentials: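 Membranes from COS7 cells transfected with human ETB receptor, prepared in HEPES pH 7.4 with aprotinin, MnCl2/DNase treatment at 37° C for 30 min. Test compounds compete with 125I-labeled ET-1 for receptor binding; membrane used at 1 μg/50 μL binding buffer.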

The next series is described as follows: Papp. Particulars: not told. It counts as in vitro ADME.
A short description of series [1]: Oral half-life and peak plasma levels. It counts as in vivo. The note with it: for POt½ in Rat: oral; for Peak Plasma Levels: rat, in vivo. The source says:
As used herein, bioavailability refers to the rate and extent of absorption. Methods for determining bioavailability are well known to those of skill in the art. For example, bioavailability of any of the compounds described herein can be determined empirically by administration of the compound to an animal, followed by taking blood samples over time and measuring the blood concentration of the compound. In vivo half life (t1/2) is defined as the time it takes for the concentration of the compound in the blood to be reduced by one-half. Estimations of the area under the curve for intravenous administration can be used to estimate the area under the curve for oral administration, ylelding bioavailability data. See, e.g., Milo Gibal (1991) Biopharmaceutics and Pharmacology, 4th edition (Lea and Sediger).
Table 2 lists oral half-life, bioavailability, and in vivo activity of selected exemplary compounds. The in vivo activity was measured in a pulmonary hypertension model and is a measure of the activity of the compounds at selected dosages.

The subject of series [2] is Pulmonary Hypertension model. Kind of series: Pulmonary Hypertension model. It counts as in vivo, rat. Details: key: ++: effective at 5 mg/kg; −: no effect at 5 mg/kg; +: effective at 15 mg/kg. On the procedure: As used herein, efficacy refers to the maximal effect that can be produced by a compound. Efficacy can be determined by methods known to those of skill in the art. For example, it can be determined by the properties of the compound and its receptor-effector system and is reflected in the plateau of the concentration-effect curve. In vivo efficacy refers to efficacy which is determined in an animal model. For example, in vivo efficacy of the compounds described herein can be determined by hypoxia-induced pulmonary hypertension in rat. See, e.g., DiCarlo et al. (1995) Am. J. Physiol. 269:[…]-[…]. Table 2 lists oral half-life, bioavailability, and in vivo activity of selected exemplary compounds. The in vivo activity was measured in a pulmonary hypertension model and is a measure of the activity of the compounds at selected dosages.

Another series concerns isolated vascular strips. Particulars: contractile agent; cited from earlier work.
Another series has as its target ETA receptor. Particulars: cited from earlier work.
Another series deals with ETB receptors. Particulars: at concentrations up to 100 μM; cited from earlier work.

The term IC50 denotes the concentration needed to halve the response being measured. By Papp is commonly meant a coefficient for how fast a substance crosses the barrier. As a reminder, the EC50 is the midpoint of the concentration-response curve. One may read the melting point as the temperature, or range, at which the solid turns liquid.

Like-named read-outs stand apart in the source and are kept apart here.

Turning to `Cc1cc(C)c(NC(=O)c2sccc2S(=O)(=O)Nc2onc(C)c2Cl)c(C)c1CC#N` [N-(4-chloro-3-methyl-5-isoxazolyl)-2-(3-cyanomethyl-2,4,6-trimethylphenylaminocarbonyl)thiophene-3-sulfonamide], the IC50 at human ETA receptors was determined as 1.18 nM. For the same compound, the IC50 at human ETB receptor came out at 38800 nM. The Papp in “Papp” was 1.78 ×10⁻⁶ cm/s. Moreover, in series [1], the “POt½ in Rat” value was determined as 3.4 h and the “Peak Plasma Levels” value stood at 40.2 µg/mL. In [2], the “in vivo Efficacy” value is reported as “++”.
Regarding endothelin-1, the EC50 with isolated vascular strips was 0.4 nM.
For `Cc1noc(NS(=O)(=O)c2ccsc2C(=O)Nc2c(C)c(C)c(C)c(C)c2C)c1Cl` [N-(4-chloro-3-methyl-5-isoxazolyl)-2-(pentamethylphenylaminocarbonyl)thiophene-3-sulfonamide], the melting point was 196 to 198 °C. Besides, the IC50 at human ETA receptors stood at 29.9 nM. Also, the IC50 on human ETB receptor was 31000 nM.
For `Cc1cc(C)c(NC(=O)c2sccc2S(=O)(=O)Nc2onc(C)c2Cl)c(C)c1CO` [N-(4-chloro-3-methyl-5-isoxazolyl)-2-(3-hydroxymethyl-2,4,6-trimethylphenylaminocarbonyl)thiophene-3-sulfonamide], the half-inhibitory concentration (IC50) on human ETA receptors stood at 0.67 nM; at human ETB receptor it was 74200 nM. The Papp in “Papp” is 1.56 ×10⁻⁶ cm/s. Besides, in [1], the “POt½ in Rat” value was determined as 1.5 h. In addition, the “Peak Plasma Levels” value in series [1] amounted to 3 µg/mL.
Consider `Cc1cc2c(cc1CC(=O)c1sccc1S(=O)(=O)Nc1onc(C)c1Cl)OCO2` [N-(4-chloro-3-methyl-5-isoxazolyl)-2-[2-methyl-4,5-(methylenedioxy)phenylacetyl]thiophene-3-sulfonamide], for which the IC50 at human ETA receptors turned out to be 14.6 nM. On human ETB receptor, this compound showed a concentration for half-maximal inhibition (IC50) of 52800 nM. Further, in the series “Papp”, the Papp was determined as 2.32 ×10⁻⁶ cm/s. Besides, in series [1], the “POt½ in Rat” value amounted to 4.1 h and the “Peak Plasma Levels” value was 173 µg/mL. Moreover, in series [2], the “in vivo Efficacy” value is listed as “++”.
On to `Cc1cc(C)c(NC(=O)c2sccc2S(=O)(=O)Nc2onc(C)c2Cl)c(C)c1C#N` [N-(4-chloro-3-methyl-5-isoxazolyl)-2-(3-cyano-2,4,6-trimethylphenylaminocarbonyl)thiophene-3-sulfonamide], for which the IC50 at human ETA receptors was determined as 1.52 nM. On human ETB receptor, this compound registered a concentration for half-maximal inhibition (IC50) of 57200 nM. Besides, in series [1], the “POt½ in Rat” value worked out at 3.9 h and the “Peak Plasma Levels” value was determined as 20 µg/mL. Moreover, in [2], the “in vivo Efficacy” value is listed as “++”.
In the case of “cyclo(D-Glu-L-Ala-allo-D-Ile-L-Leu-D-Trp) [BE-18257B]”, the IC50 on ETA receptor (aortic smooth muscle) was 1400 nM; at ETA receptor (cultured aortic smooth muscle cells) it was 500 nM; on ETA receptor (ventricle membranes), 800 nM. In addition, in the series with ETB receptors, the inhibition of binding entry is listed as “fails to inhibit binding”.
Consider `COc1cc(C#N)c(NC(=O)c2sccc2S(=O)(=O)Nc2onc(C)c2Cl)c(OC)c1OC` [N-(4-chloro-3-methyl-5-isoxazolyl)-2-[(2,3,4-trimethoxy-6-cyano)phenylaminocarbonyl]thiophene-3-sulfonamide], for which the results for the IC50 on human ETA receptors and at human ETB receptor were 0.24 nM and 7000 nM, respectively. This compound gave a Papp in the series “Papp” of 0.58 ×10⁻⁶ cm/s.
For the compound `CC(=O)OCc1c(C)cc(C)c(NC(=O)c2sccc2S(=O)(=O)Nc2onc(C)c2Cl)c1C` [N-(4-chloro-3-methyl-5-isoxazolyl)-2-(3-acetoxymethyl-2,4,6-trimethylphenylaminocarbonyl)thiophene-3-sulfonamide], the IC50 on human ETA receptors came to 0.86 nM; on human ETB receptor, 730000 nM. In addition, the Papp in the series “Papp” amounted to 1.46 ×10⁻⁶ cm/s.
Consider `Cc1cc(C)c(NC(=O)c2sccc2S(=O)(=O)Nc2noc(C)c2Cl)c(C)c1CC#N` [N-(4-chloro-5-methyl-3-isoxazolyl)-2-(3-cyanomethyl-2,4,6-trimethylphenylaminocarbonyl)thiophene-3-sulfonamide], for which the half-inhibitory concentration (IC50) at human ETA receptors was 0.88 nM. Moreover, the IC50 at human ETB receptor was 7540 nM. Also, in series [1], the “POt½ in Rat” value stood at 25.6 h and the “Peak Plasma Levels” value was found to be 13 µg/mL. In series [2], the “in vivo Efficacy” value is “−”.
